Laboratory results from the OligoGym collection.
Oligonucleotides are written 5' to 3', each unit as a sugar letter and its base; * is a phosphorothioate linkage, no mark a phosphodiester; rarer units and linkages stand in square brackets, end groups in braces. Plain capitals give the bases only. d = 2'-deoxy (DNA); r = 2'-OH (RNA)

biological target: P2rx2 (rat); assay: reporter assay of Huesken 2005; conditions: siRNA
Further: test concentration or dose not given here.

| Substance | normalised inhibition (eCFP-eYFP dual reporter) [%] |
| --- | --- |
| sense rUrGrArGrArArGrGrCrArGrGrArGrArGrArArCdTdT / antisense rGrUrUrCrUrCrUrCrCrUrGrCrCrUrUrCrUrCrAdAdC | 32.3 |
| sense rUrGrCrCrArArGrUrArUrUrArCrArArGrArUrAdTdT / antisense rUrArUrCrUrUrGrUrArArUrArCrUrUrGrGrCrAdAdA | 76.8 |
| sense rUrGrCrCrCrUrUrGrUrCrUrUrGrGrGrCrCrArGdTdT / antisense rCrUrGrGrCrCrCrArArGrArCrArArGrGrGrCrAdAdG | 37 |
| sense rUrGrGrCrCrArCrUrGrCrUrCrUrGrArCrCrUrCdTdT / antisense rGrArGrGrUrCrArGrArGrCrArGrUrGrGrCrCrAdGdA | 57 |
| sense rUrGrGrCrUrGrUrCrCrArGrUrCrUrCrCrUrCrGdTdT / antisense rCrGrArGrGrArGrArCrUrGrGrArCrArGrCrCrAdGdT | 67.4 |
| sense rUrGrUrCrUrGrArArUrCrArGrArGrUrGrCrArAdTdT / antisense rUrUrGrCrArCrUrCrUrGrArUrUrCrArGrArCrAdAdG | 80.9 |
| sense rUrUrCrArCrArGrCrUrCrUrArCrCrUrGrCrCrAdTdT / antisense rUrGrGrCrArGrGrUrArGrArGrCrUrGrUrGrArAdCdC | 51.7 |
| sense rUrUrGrCrArArGrCrCrArGrArArGrArGrUrGrAdTdT / antisense rUrCrArCrUrCrUrUrCrUrGrGrCrUrUrGrCrArAdTdG | 72.8 |
| sense rUrUrGrCrCrArArGrUrArUrUrArCrArArGrArUdTdT / antisense rArUrCrUrUrGrUrArArUrArCrUrUrGrGrCrArAdAdC | 56.7 |

biological target: UBE2C; assay: reporter assay of Huesken 2005; conditions: siRNA

| Substance | normalised inhibition (eCFP-eYFP dual reporter) [%] |
| --- | --- |
| sense rArArCrArUrUrGrArUrArGrUrCrCrCrUrUrGrAdTdT / antisense rUrCrArArGrGrGrArCrUrArUrCrArArUrGrUrUdGdG | 93.1 |
| sense rArArGrArCrCrUrGrArGrGrUrArUrArArGrCrUdTdT / antisense rArGrCrUrUrArUrArCrCrUrCrArGrGrUrCrUrUdCdA | 46.4 |
| sense rArArGrUrUrCrCrUrCrArCrGrCrCrCrUrGrCrUdTdT / antisense rArGrCrArGrGrGrCrGrUrGrArGrGrArArCrUrUdCdA | 51 |
| sense rArArUrGrCrGrCrCrCrArCrArGrUrGrArArGrUdTdT / antisense rArCrUrUrCrArCrUrGrUrGrGrGrCrGrCrArUrUdGdT | 57.6 |
| sense rArCrArArUrGrCrGrCrCrCrArCrArGrUrGrArAdTdT / antisense rUrUrCrArCrUrGrUrGrGrGrCrGrCrArUrUrGrUdAdA | 93.7 |
| sense rArCrArCrArCrArUrGrCrUrGrCrCrGrArGrCrUdTdT / antisense rArGrCrUrCrGrGrCrArGrCrArUrGrUrGrUrGrUdTdC | 78 |
| sense rArCrArGrUrArUrArUrGrArArGrArCrCrUrGrAdTdT / antisense rUrCrArGrGrUrCrUrUrCrArUrArUrArCrUrGrUdTdC | 88.1 |
| sense rArCrArUrArUrGrCrCrUrGrGrArCrArUrCrCrUdTdT / antisense rArGrGrArUrGrUrCrCrArGrGrCrArUrArUrGrUdTdA | 75.7 |
| sense rArCrArUrCrCrUrGrArArGrGrArArArArGrUrGdTdT / antisense rCrArCrUrUrUrUrCrCrUrUrCrArGrGrArUrGrUdCdC | 46.2 |
| sense rArCrArUrUrGrArUrArGrUrCrCrCrUrUrGrArAdTdT / antisense rUrUrCrArArGrGrGrArCrUrArUrCrArArUrGrUdTdG | 90.8 |
| sense rArCrCrArUrCrCrArUrGrGrArGrCrArGrCrUrGdTdT / antisense rCrArGrCrUrGrCrUrCrCrArUrGrGrArUrGrGrUdCdC | 62.1 |
| sense rArCrCrCrArGrGrGrUrArArCrArUrArUrGrCrCdTdT / antisense rGrGrCrArUrArUrGrUrUrArCrCrCrUrGrGrGrUdGdT | 39.6 |
| sense rArCrCrCrUrUrArCrArArUrGrCrGrCrCrCrArCdTdT / antisense rGrUrGrGrGrCrGrCrArUrUrGrUrArArGrGrGrUdAdG | 47.4 |
| sense rArCrCrUrGrArGrGrUrArUrArArGrCrUrCrUrCdTdT / antisense rGrArGrArGrCrUrUrArUrArCrCrUrCrArGrGrUdCdT | 80.9 |
| sense rArCrGrUrGrGrArCrArCrCrCrArGrGrGrUrArAdTdT / antisense rUrUrArCrCrCrUrGrGrGrUrGrUrCrCrArCrGrUdTdG | 83 |
| sense rArGrArCrCrUrGrArGrGrUrArUrArArGrCrUrCdTdT / antisense rGrArGrCrUrUrArUrArCrCrUrCrArGrGrUrCrUdTdC | 71.7 |
| sense rArGrArGrUrUrCrCrCrCrArGrUrGrGrCrUrArCdTdT / antisense rGrUrArGrCrCrArCrUrGrGrGrGrArArCrUrCrUdAdG | 87 |
| sense rArGrCrUrGrGrArArCrArGrUrArUrArUrGrArAdTdT / antisense rUrUrCrArUrArUrArCrUrGrUrUrCrCrArGrCrUdGdC | 97.5 |
| sense rArGrGrArGrArArCrCrCrArArCrArUrUrGrArUdTdT / antisense rArUrCrArArUrGrUrUrGrGrGrUrUrCrUrCrCrUdAdG | 94.2 |
| sense rArGrGrUrArUrArArGrCrUrCrUrCrGrCrUrArGdTdT / antisense rCrUrArGrCrGrArGrArGrCrUrUrArUrArCrCrUdCdA | 92.4 |
| sense rArGrUrArUrArUrGrArArGrArCrCrUrGrArGrGdTdT / antisense rCrCrUrCrArGrGrUrCrUrUrCrArUrArUrArCrUdGdT | 77.2 |
| sense rArGrUrGrGrCrUrArCrCrCrUrUrArCrArArUrGdTdT / antisense rCrArUrUrGrUrArArGrGrGrUrArGrCrCrArCrUdGdG | 76.9 |
| sense rArGrUrGrGrUrCrUrGrCrCrCrUrGrUrArUrGrAdTdT / antisense rUrCrArUrArCrArGrGrGrCrArGrArCrCrArCrUdTdT | 61.1 |
| sense rArGrUrUrCrCrUrCrArCrGrCrCrCrUrGrCrUrAdTdT / antisense rUrArGrCrArGrGrGrCrGrUrGrArGrGrArArCrUdTdC | 84.4 |
| sense rArUrGrCrUrGrCrCrGrArGrCrUrCrUrGrGrArAdTdT / antisense rUrUrCrCrArGrArGrCrUrCrGrGrCrArGrCrArUdGdT | 84.5 |
| sense rArUrGrGrArGrCrArGrCrUrGrGrArArCrArGrUdTdT / antisense rArCrUrGrUrUrCrCrArGrCrUrGrCrUrCrCrArUdGdG | 84.5 |
| sense rArUrGrUrCrArGrGrArCrCrArUrUrCrUrGrCrUdTdT / antisense rArGrCrArGrArArUrGrGrUrCrCrUrGrArCrArUdCdA | 56.5 |
| sense rCrArCrCrCrCrArArCrGrUrGrGrArCrArCrCrCdTdT / antisense rGrGrGrUrGrUrCrCrArCrGrUrUrGrGrGrGrUrGdAdT | 11.6 |
